From the NIST ThermoML archive (doi:10.1021/je700443d)
Where “and” joins values, the source holds several entries; their conditions need not be identical. Equal values may be shown once. ± gives the expanded uncertainty stated by the source.

Conditions: Liquid; for vapor or sublimation pressure: Closed cell (Static) method; for mass density: determined from pressure vs temperature measurement to find liquid-full point for a closed cell

CO[Si](OC)(OC)OC [silicon tetramethoxide]
vapor or sublimation pressure (334.15 K): 30 ± 15 kPa
mass density (334.15 K): 990 ± 60 kg/m3
vapor or sublimation pressure (335.15 K): 30 ± 15 kPa
vapor or sublimation pressure (336.15 K): 30 ± 15 kPa
vapor or sublimation pressure (337.15 K): 30 ± 15 kPa
vapor or sublimation pressure (338.15 K): 30 ± 15 kPa
vapor or sublimation pressure (339.15 K): 30 ± 15 kPa
vapor or sublimation pressure (341.15 K): 30 ± 15 kPa
vapor or sublimation pressure (342.15 K): 30 ± 17 kPa
vapor or sublimation pressure (343.15 K): 30 ± 13 kPa
vapor or sublimation pressure (344.15 K): 30 ± 17 kPa
vapor or sublimation pressure (345.15 K): 40 ± 17 kPa
vapor or sublimation pressure (347.15 K): 40 ± 14 kPa
vapor or sublimation pressure (348.15 K): 40 ± 20 kPa
mass density (348.15 K): 940 ± 60 kg/m3
vapor or sublimation pressure (349.15 K): 40 ± 20 kPa
vapor or sublimation pressure (351.15 K): 40 ± 20 kPa
vapor or sublimation pressure (352.15 K): 40 ± 20 kPa
vapor or sublimation pressure (353.15 K): 40 ± 20 kPa
vapor or sublimation pressure (355.15 K): 40 ± 17 kPa
vapor or sublimation pressure (356.15 K): 40 ± 17 kPa
vapor or sublimation pressure (357.15 K): 50 ± 13 kPa
vapor or sublimation pressure (358.15 K): 50 ± 17 kPa
vapor or sublimation pressure (359.15 K): 50 ± 17 kPa
vapor or sublimation pressure (361.15 K): 50 ± 25 kPa
vapor or sublimation pressure (362.15 K): 50 ± 25 kPa
vapor or sublimation pressure (363.15 K): 50 ± 14 kPa
vapor or sublimation pressure (364.15 K): 50 ± 16 kPa
vapor or sublimation pressure (365.15 K): 50 ± 17 kPa
mass density (365.15 K): 920 ± 60 kg/m3
vapor or sublimation pressure (366.15 K): 60 ± 18 kPa
vapor or sublimation pressure (368.15 K): 60 ± 18 kPa
vapor or sublimation pressure (369.15 K): 60 ± 31 kPa
vapor or sublimation pressure (370.15 K): 60 ± 15 kPa
vapor or sublimation pressure (371.15 K): 60 ± 18 kPa
vapor or sublimation pressure (372.15 K): 60 ± 18 kPa
vapor or sublimation pressure (373.1 K): 70 ± 15 kPa
vapor or sublimation pressure (374.15 K): 70 ± 18 kPa
vapor or sublimation pressure (375.15 K): 70 ± 34 kPa
vapor or sublimation pressure (377.15 K): 70 ± 18 kPa
vapor or sublimation pressure (378.15 K): 80 ± 18 kPa
vapor or sublimation pressure (379.15 K): 80 ± 29 kPa
vapor or sublimation pressure (380.15 K): 80 ± 29 kPa
vapor or sublimation pressure (381.15 K): 80 ± 18 kPa
vapor or sublimation pressure (382.15 K): 90 ± 19 kPa
mass density (383.15 K): 900 ± 50 kg/m3
vapor or sublimation pressure (384.15 K): 90 ± 35 kPa
vapor or sublimation pressure (385.15 K): 90 ± 19 kPa
vapor or sublimation pressure (386.15 K): 90 ± 15 kPa
vapor or sublimation pressure (387.15 K): 100 ± 19 kPa
vapor or sublimation pressure (388.15 K): 100 ± 35 kPa
mass density (389.15 K): 880 ± 50 kg/m3
vapor or sublimation pressure (390.15 K): 100 ± 19 kPa
vapor or sublimation pressure (391.15 K): 110 ± 35 kPa
vapor or sublimation pressure (392.15 K): 110 ± 30 kPa
vapor or sublimation pressure (393.15 K): 110 ± 45 kPa
vapor or sublimation pressure (394.15 K): 120 ± 35 kPa
vapor or sublimation pressure (395.15 K): 120 ± 35 kPa
vapor or sublimation pressure (397.15 K): 130 ± 36 kPa
vapor or sublimation pressure (398.15 K): 130 ± 36 kPa
vapor or sublimation pressure (399.15 K): 130 ± 40 kPa
vapor or sublimation pressure (400.15 K): 140 ± 36 kPa
vapor or sublimation pressure (401.15 K): 140 ± 36 kPa
vapor or sublimation pressure (403.15 K): 150 ± 37 kPa
vapor or sublimation pressure (404.15 K): 150 ± 52 kPa
vapor or sublimation pressure (405.15 K): 160 ± 46 kPa
vapor or sublimation pressure (406.15 K): 160 ± 52 kPa
mass density (406.15 K): 850 ± 50 kg/m3
vapor or sublimation pressure (407.15 K): 170 ± 45 kPa
vapor or sublimation pressure (408.15 K): 170 ± 37 kPa
vapor or sublimation pressure (409.15 K): 180 ± 53 kPa
vapor or sublimation pressure (411.15 K): 180 ± 53 kPa
vapor or sublimation pressure (412.15 K): 190 ± 38 kPa
vapor or sublimation pressure (413.15 K): 190 ± 42 kPa
vapor or sublimation pressure (414.15 K): 200 ± 54 kPa
vapor or sublimation pressure (415.15 K): 200 ± 54 kPa
mass density (415.15 K): 840 ± 50 kg/m3
vapor or sublimation pressure (417.15 K): 210 ± 54 kPa
vapor or sublimation pressure (418.15 K): 220 ± 55 kPa
vapor or sublimation pressure (419.15 K): 220 ± 61 kPa
vapor or sublimation pressure (420.15 K): 230 ± 61 kPa
vapor or sublimation pressure (421.15 K): 230 ± 55 kPa
vapor or sublimation pressure (422.15 K): 240 ± 71 kPa
vapor or sublimation pressure (424.15 K): 250 ± 71 kPa
vapor or sublimation pressure (425.15 K): 260 ± 71 kPa
vapor or sublimation pressure (426.15 K): 260 ± 62 kPa
vapor or sublimation pressure (427.15 K): 270 ± 72 kPa
vapor or sublimation pressure (428.15 K): 280 ± 63 kPa
vapor or sublimation pressure (429.15 K): 280 ± 72 kPa
vapor or sublimation pressure (430.15 K): 290 ± 73 kPa
vapor or sublimation pressure (432.15 K): 300 ± 73 kPa
vapor or sublimation pressure (433.15 K): 310 ± 73 kPa
vapor or sublimation pressure (434.15 K): 320 ± 78 kPa
mass density (434.15 K): 800 ± 50 kg/m3
vapor or sublimation pressure (435.15 K): 320 ± 78 kPa
vapor or sublimation pressure (436.15 K): 330 ± 74 kPa
vapor or sublimation pressure (437.15 K): 340 ± 75 kPa
vapor or sublimation pressure (439.15 K): 350 ± 75 kPa
vapor or sublimation pressure (440.15 K): 360 ± 76 kPa
mass density (440.15 K): 800 ± 50 kg/m3
vapor or sublimation pressure (441.15 K): 360 ± 79 kPa
vapor or sublimation pressure (442.15 K): 370 ± 91 kPa
vapor or sublimation pressure (443.15 K): 380 ± 81 kPa
vapor or sublimation pressure (444.15 K): 390 ± 92 kPa
vapor or sublimation pressure (445.15 K): 400 ± 78 kPa
vapor or sublimation pressure (447.15 K): 410 ± 78 kPa
vapor or sublimation pressure (448.15 K): 410 ± 78 kPa
vapor or sublimation pressure (449.15 K): 420 ± 82 kPa
vapor or sublimation pressure (450.15 K): 430 ± 94 kPa
vapor or sublimation pressure (451.15 K): 440 ± 110 kPa
vapor or sublimation pressure (452.15 K): 450 ± 96 kPa
vapor or sublimation pressure (453.15 K): 460 ± 95 kPa
vapor or sublimation pressure (454.15 K): 470 ± 95 kPa
vapor or sublimation pressure (456.15 K): 480 ± 96 kPa
vapor or sublimation pressure (457.15 K): 490 ± 96 kPa
vapor or sublimation pressure (458.15 K): 500 ± 98 kPa
vapor or sublimation pressure (459.15 K): 510 ± 130 kPa
vapor or sublimation pressure (460.15 K): 520 ± 130 kPa
vapor or sublimation pressure (461.15 K): 530 ± 110 kPa
vapor or sublimation pressure (462.15 K): 550 ± 110 kPa
vapor or sublimation pressure (463.15 K): 560 ± 110 kPa
mass density (463.15 K): 750 ± 50 kg/m3 and 770 ± 50 kg/m3
vapor or sublimation pressure (465.15 K): 570 ± 120 kPa
vapor or sublimation pressure (466.15 K): 580 ± 120 kPa
vapor or sublimation pressure (467.15 K): 590 ± 120 kPa
vapor or sublimation pressure (468.15 K): 610 ± 150 kPa
vapor or sublimation pressure (469.15 K): 620 ± 150 kPa
vapor or sublimation pressure (470.15 K): 630 ± 130 kPa
vapor or sublimation pressure (471.15 K): 650 ± 120 kPa
vapor or sublimation pressure (472.15 K): 660 ± 130 kPa
vapor or sublimation pressure (474.15 K): 670 ± 130 kPa
vapor or sublimation pressure (475.15 K): 690 ± 140 kPa
vapor or sublimation pressure (476.15 K): 700 ± 140 kPa
vapor or sublimation pressure (477.15 K): 720 ± 170 kPa
vapor or sublimation pressure (478.15 K): 730 ± 170 kPa
vapor or sublimation pressure (479.15 K): 750 ± 170 kPa
vapor or sublimation pressure (480.15 K): 760 ± 170 kPa
mass density (480.15 K): 710 ± 40 kg/m3
vapor or sublimation pressure (481.15 K): 780 ± 150 kPa
vapor or sublimation pressure (482.15 K): 790 ± 140 kPa
vapor or sublimation pressure (483.15 K): 810 ± 160 kPa
mass density (483.15 K): 730 ± 50 kg/m3
vapor or sublimation pressure (485.15 K): 820 ± 160 kPa
vapor or sublimation pressure (486.15 K): 840 ± 160 kPa
vapor or sublimation pressure (487.15 K): 860 ± 160 kPa
vapor or sublimation pressure (488.15 K): 870 ± 190 kPa
vapor or sublimation pressure (489.15 K): 890 ± 190 kPa
vapor or sublimation pressure (490.15 K): 910 ± 190 kPa
vapor or sublimation pressure (491.15 K): 920 ± 200 kPa
vapor or sublimation pressure (492.15 K): 940 ± 210 kPa
vapor or sublimation pressure (493.15 K): 960 ± 170 kPa
vapor or sublimation pressure (494.15 K): 980 ± 180 kPa
vapor or sublimation pressure (495.15 K): 1000 ± 180 kPa
vapor or sublimation pressure (497.15 K): 1010 ± 180 kPa
vapor or sublimation pressure (498.15 K): 1030 ± 180 kPa
vapor or sublimation pressure (499.15 K): 1050 ± 190 kPa
vapor or sublimation pressure (500.15 K): 1070 ± 230 kPa
vapor or sublimation pressure (501.15 K): 1090 ± 230 kPa
vapor or sublimation pressure (502.15 K): 1110 ± 210 kPa
mass density (502.15 K): 690 ± 40 kg/m3
vapor or sublimation pressure (503.15 K): 1130 ± 220 kPa
vapor or sublimation pressure (504.15 K): 1150 ± 220 kPa
vapor or sublimation pressure (505.15 K): 1160 ± 220 kPa
vapor or sublimation pressure (506.15 K): 1180 ± 230 kPa
vapor or sublimation pressure (507.15 K): 1200 ± 230 kPa
vapor or sublimation pressure (508.15 K): 1220 ± 210 kPa
vapor or sublimation pressure (509.15 K): 1250 ± 210 kPa
vapor or sublimation pressure (510.15 K): 1270 ± 210 kPa
vapor or sublimation pressure (512.15 K): 1280 ± 200 kPa
vapor or sublimation pressure (513.15 K): 1300 ± 200 kPa
vapor or sublimation pressure (514.15 K): 1320 ± 200 kPa and 1340 ± 210 kPa
vapor or sublimation pressure (516.15 K): 1360 ± 240 kPa
vapor or sublimation pressure (517.15 K): 1380 ± 240 kPa
vapor or sublimation pressure (518.15 K): 1400 ± 240 kPa
vapor or sublimation pressure (519.15 K): 1420 ± 240 kPa
mass density (519.15 K): 650 ± 40 kg/m3
vapor or sublimation pressure (520.15 K): 1440 ± 250 kPa
vapor or sublimation pressure (521.15 K): 1460 ± 250 kPa
vapor or sublimation pressure (522.15 K): 1480 ± 250 kPa
mass density (532.15 K): 610 ± 40 kg/m3
